Experimental data from patent publication US20160153998A1, “BIOMARKERS FOR PREDICTING THE SENSITIVITY OF CELLS TO IMMUNOMODULATORY COMPOUNDS DURING TREATMENT OF NON-HODGKIN'S LYMPHOMA” (Celgene Corporation, priority 2007, published 2016).

Assays:
Assay type in all cases: cell-based
DB cells = assay: Luminex assay for VEGF production, DB; details: 3 days
Procedure: (§1) Cells were treated with the drug for 3 days in 96 well plates. Cell culture supernatants were then collected for measurement of VEGF using Luminex/xMAP® technology.
(§2) 1-oxo-2-(2,6-dioxopiperidin-3-yl)-4-aminoisoindoline inhibited the production of the pro-angiogenic growth factor VEGF from anti-proliferation sensitive NHL cells, such as Namalwa, Jeko-1 and Rec-1 cells.

sensitive NHL cells = assay: Luminex assay for VEGF production, sensitive NHL cells
Procedure: as §1, §2

Rec-1 cells [1] = assay: Real-time PCR gene expression in Rec-1 cells; details: 1, 10 or 100 μM, 24 or 48 hours, alone or with dexamethasone 10 nM
Procedure: (§3) After the cell treatment, total RNA was purified. Real-time PCR was performed with 100 ng of total RNA, using an Applied Biosystems 7500 instrument (Applied Biosystems, Foster City, Calif.) using TaqMan Sequence Detection chemistry which uses a fluorogenic probe (FAM) to enable the detection of a specific PCR product as it accumulates during PCR. Samples were prepared in triplicate in 50 μl reaction volumes. The 50 μl reactions consisted of 25 μl 2× TaqMan PCR master mix, 2.5 μl of 20× gene expression assay, 10 μl of RNA ([…]) and 12.5 μl water. Glyceraldehyde-3-phosphate dehydrogenase (GAPDH) was used as the endogenous control to ensure equal RNA amounts in each sample.
(§4) TaqMan® Gene Expression Assays were pre-formulated gene expression assays for rapid, reliable detection and quantification of human, mouse and rat mRNA transcripts. The PCR program used was: 50° C. for 2 minutes, 95° C. for 10 minutes, 40 cycles of 95° C. for 15 seconds, 60° C. for 1 minute. Data was analyzed using 7500 Real-Time PCR System Sequence Detection software v1.3 using the comparative CT relative quantification calculation method. The output was expressed as a fold-change of expression levels. The threshold level was selected to be automatically determined by the software and was set to be above the baseline but sufficiently low to be within the exponential growth region of an amplification curve. The cycle number at which the fluorescence signal associated with a particular amplicon accumulation crosses the threshold is referred to as the CT.
The effect of 1,3-dioxo-2-(2,6-dioxopiperidin-3-yl)-4-aminoisoindoline or 1-oxo-2-(2,6-dioxopiperidin-3-yl)-4-aminoisoindoline, either alone or in combination with Dexamethasone (10 nM) on the expression of several important genes involved in the regulation of NHL cell proliferation and survival was determined using Rec-1 cells (FIG. 1). The immunomodulatory compounds 1,3-dioxo-2-(2,6-dioxopiperidin-3-yl)-4-aminoisoindoline or 1-oxo-2-(2,6-dioxopiperidin-3-yl)-4-aminoisoindoline were added to the Rec-1 cells at a final concentration of 1, 10, or 100 μM. After 24 or 48 hours of incubation with 1,3-dioxo-2-(2,6-dioxopiperidin-3-yl)-4-aminoisoindoline or 1-oxo-2-(2,6-dioxopiperidin-3-yl)-4-aminoisoindoline, gene expression of VEGF, p21, p53, and cyclin D1 was measured using real-time PCR.

Jeko-1 cells [2] = assay: Luminex assay for VEGF production, Jeko-1; details: 3 days
Procedure: as §1, §2

Rec-1 cells [3] = assay: Rec-1 cell growth in the presence of rhVEGF or anti-VEGF antibody; details: Rec-1 cells (FIG. 8)
Procedure: (§5) NHL cell proliferation was assessed by 3H-thymidine incorporation assay. Briefly, cells were cultured in 96 well cell culture plates in complete RPMI-1640 medium in the presence and absence of drugs. Following incubation at 37° C. for 3 days, 1 μCi 3H-thymidine was added to each well for the last 5 hours of incubation. The 3H incorporation of each well was then measured.

DB cell line = assay: NHL cell proliferation, 3H-thymidine incorporation, DB cells; details: DB (t(14;18)) cells
Procedure: as §5
(§6) To better understand how the effectiveness of immunomodulatory compound administration varies among different cancer cell types, the immunomodulatory compound 1-oxo-2-(2,6-dioxopiperidin-3-yl)-4-aminoisoindoline was tested in vitro for its anti-proliferative effect in several NHL cell lines after 1-3 days of treatment. The method utilized ^3H-thymidine incorporation, microbead array technology and real time PCR. The six tested cell lines were Namalwa, Jeko-1, Rec-1, Granta-519, DB, and JVM-2.

NHL cells = assay: Real-time RT-PCR gene expression in NHL cell lines
Procedure: as §3, §4
The effect of the administration of 1-oxo-2-(2,6-dioxopiperidin-3-yl)-4-aminoisoindoline in various NHL cells was measured after 24 hours of incubation, using real-time RT-PCR (FIG. 9).

[4] = test system: NHL cell lines (Namalwa, Jeko-1, Rec-1, Granta-519, DB, JVM-2); assay: NHL cell proliferation, 3H-thymidine incorporation
Procedure: as §5, §6

Jeko-1 cells [5] = assay: Real-time RT-PCR mRNA levels in Jeko-1 cells; details: 24 hours
Procedure: as §3, §4
Jeko-1 cells were treated with immunomodulatory compounds, with or without dexamethasone (10 nM) for 24 hours. Total RNA was then isolated from the treated cells, and the samples were subjected to real-time RT-PCR analysis to determine gene transcription at the mRNA level. […] 1,3-dioxo-2-(2,6-dioxopiperidin-3-yl)-4-aminoisoindoline (at 10 μM) enhanced mRNA levels of these genes up to about 3-fold. 1-oxo-2-(2,6-dioxopiperidin-3-yl)-4-aminoisoindoline (1 μM) enhanced activin A mRNA level up to 2.6-fold, and SPARC was enhanced at 10 μM.

Namalwa cells [6] = assay: Proliferation of Namalwa cells after SPARC siRNA knockdown; details: SPARC siRNA 200 nM, drug for 2 days
Procedure: as §5
Cells were transfected with SPARC or cyclophilin siGENME SMARTpool (Dharmacon, Lafayette, Colo.) at final concentration of 200 nM using DharmaFECT 2 transfection reagents following the manufacturer's protocol. After 24 hours of transfection, cells were then treated with the drug for 2 days.
SPARC siRNA was transfected to Namalwa cells to determine the effect of a SPARC knockdown on the antiproliferative effect of 1-oxo-2-(2,6-dioxopiperidin-3-yl)-4-aminoisoindoline in Namalwa cells. The anti-proliferative effect of 1-oxo-2-(2,6-dioxopiperidin-3-yl)-4-aminoisoindoline is weaker after SPARC knockdown compared to mock transfected control cells.

Namalwa cells [7] = assay: Real-time RT-PCR gene expression in Namalwa cells
Procedure: as §3, §4
The effect of the administration of 1-oxo-2-(2,6-dioxopiperidin-3-yl)-4-aminoisoindoline in Namalwa cells after 48 hours of drug treatment was measured.
The effect of administration of 1-oxo-2-(2,6-dioxopiperidin-3-yl)-4-aminoisoindoline at various time points from 0 to 48 hours in the fold change in expression of several genes was measured in Namalwa cells (FIG. 11).

Rec-1 cells [8] = assay: Luminex assay for VEGF production, Rec-1; details: 3 days
Procedure: as §1, §2

Namalwa cells [9] = assay: Luminex assay for VEGF production, Namalwa; details: 3 days
Procedure: as §1, §2

Granta-519 cells = assay: Luminex assay for VEGF production, Granta-519; details: 3 days
Procedure: as §1, §2

[10] = Namalwa cells, 10 μM, 2-48 hours

SMILES: Nc1cccc2c1CN(C1CCC(=O)NC1=O)C2=O (centres unmarked) [1-oxo-2-(2,6-dioxopiperidin-3-yl)-4-aminoisoindoline]
- production of VEGF (DB cells): fails to inhibit
- concentrations for the effect on VEGF compared with anti-proliferative effects (sensitive NHL cells): well below levels required for anti-proliferative effects
- production of the proangiogenic growth factor VEGF (sensitive NHL cells; FIG. 7): inhibits
- VEGF mRNA level (Rec-1 cells [1]): decrease
- p21 mRNA level (Rec-1 cells [1]): increase
- production of VEGF (Jeko-1 cells [2]): inhibited
- anti-proliferative activity on addition of exogenous recombinant human VEGF (in excess) or neutralizing VEGF antibody (Rec-1 cells [3]): does not affect
- cell proliferation of DB cell line (DB cell line): increased rate of cell proliferation
- VEGF mRNA expression (NHL cells; NHL cells): does not inhibit
- p21 in sensitive and resistant (DB) cells (NHL cells; both sensitive and resistant (DB) cells): elevated p21 was observed
- elevation of SPARC mRNA in resistant cells (NHL cells; resistant cells): not seen
- SPARC expression (NHL cells; sensitive NHL cells, 24 hours): increased
- p21cip/kip expression (NHL cells; sensitive NHL cells, 24 hours): increased
- SPARC mRNA expression (NHL cells; several NHL cell lines): increased expression of SPARC mRNA
- p21cip/kip expression (NHL cells; several cell lines): increased
- anti-proliferative activity against NHL cells ([4]; 1-3 days of treatment): demonstrated anti-proliferative activity
- order of sensitivity of NHL cell lines to the compound ([4]; 3 day incubation): Namalwa>Rec-1>Jeko-1>Granta-519>JVM-2>DB
- enhancement of activin A mRNA level (Jeko-1 cells [5]; 1 μM): up to 2.6 fold
- SPARC mRNA level (Jeko-1 cells [5]; 10 μM): enhanced
- anti-proliferative effect after SPARC knockdown compared to mock transfected control cells (Namalwa cells [6]): weaker
- change in expression of BlyS (Namalwa cells [7]; [10]): did not exhibit a significant change
- change in expression of VEGF (Namalwa cells [7]; [10]): did not exhibit a significant change
- change in expression of cyclin D1 (Namalwa cells [7]; [10]): did not exhibit a significant change
- change in expression of p53/p73 (Namalwa cells [7]; [10]): did not exhibit a significant change
- production of VEGF (Rec-1 cells [8]): inhibited
- production of VEGF (Namalwa cells [9]): inhibited
- production of VEGF (Granta-519 cells): fails to inhibit

SMILES: C[C@@H]1C[C@H]2[C@@H]3CCC4=CC(=O)C=C[C@]4(C)[C@@]3(F)[C@@H](O)C[C@]2(C)[C@@]1(O)C(=O)CO [dexamethasone]
- SPARC expression (Namalwa cells [7]; dexamethasone alone, NHL cells such as Namalwa): no effect

SMILES: Nc1cccc2c1C(=O)N(C1CCC(=O)NC1=O)C2=O (centres unmarked) [1,3-dioxo-2-(2,6-dioxopiperidin-3-yl)-4-aminoisoindoline]
- VEGF mRNA level (Rec-1 cells [1]): decrease
- p21 mRNA level (Rec-1 cells [1]): increase
- enhancement of mRNA levels of p21, activin A and SPARC (Jeko-1 cells [5]; 10 μM): about 3 fold
- SPARC mRNA level (Jeko-1 cells [5]; 1-10 μM): up-regulate
- activin A mRNA level (Jeko-1 cells [5]; 1-10 μM): up-regulate
- p21 mRNA level (Jeko-1 cells [5]; 1-10 μM): up-regulate
- effect on p21 (Jeko-1 cells [5]): clear enhancing effect
